The target of test [1] is TLR1/TLR2 (Homo sapiens, UniProt O60603+Q15399). Nature of the test: TNF-α release from PMA-differentiated human THP-1 cells (ELISA).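 As to all read-outs here: cells exposed to graded compound concentrations for 4 h, TNF-α quantified in supernatant, LPS as positive and DMSO as negative control, values are duplicate means.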 The following applies: for EC50: read-out: EC50 (nM) (THP-1): EC50 TNF-α release from human THP-1 cells, Table 1.
The target of test [2] is TLR1/TLR2 (Mus musculus, UniProt Q9EPQ1+Q9QUN7). In words: TNF-α release from thioglycolate-elicited mouse peritoneal macrophages (ELISA). As to conditions: for EC50: read-out: EC50 (nM) (mouse): EC50 TNF-α release from mouse macrophages, Table 1.
Chain of TLR1/TLR2 (Mus musculus, UniProt Q9EPQ1+Q9QUN7) (Q9EPQ1 26-795): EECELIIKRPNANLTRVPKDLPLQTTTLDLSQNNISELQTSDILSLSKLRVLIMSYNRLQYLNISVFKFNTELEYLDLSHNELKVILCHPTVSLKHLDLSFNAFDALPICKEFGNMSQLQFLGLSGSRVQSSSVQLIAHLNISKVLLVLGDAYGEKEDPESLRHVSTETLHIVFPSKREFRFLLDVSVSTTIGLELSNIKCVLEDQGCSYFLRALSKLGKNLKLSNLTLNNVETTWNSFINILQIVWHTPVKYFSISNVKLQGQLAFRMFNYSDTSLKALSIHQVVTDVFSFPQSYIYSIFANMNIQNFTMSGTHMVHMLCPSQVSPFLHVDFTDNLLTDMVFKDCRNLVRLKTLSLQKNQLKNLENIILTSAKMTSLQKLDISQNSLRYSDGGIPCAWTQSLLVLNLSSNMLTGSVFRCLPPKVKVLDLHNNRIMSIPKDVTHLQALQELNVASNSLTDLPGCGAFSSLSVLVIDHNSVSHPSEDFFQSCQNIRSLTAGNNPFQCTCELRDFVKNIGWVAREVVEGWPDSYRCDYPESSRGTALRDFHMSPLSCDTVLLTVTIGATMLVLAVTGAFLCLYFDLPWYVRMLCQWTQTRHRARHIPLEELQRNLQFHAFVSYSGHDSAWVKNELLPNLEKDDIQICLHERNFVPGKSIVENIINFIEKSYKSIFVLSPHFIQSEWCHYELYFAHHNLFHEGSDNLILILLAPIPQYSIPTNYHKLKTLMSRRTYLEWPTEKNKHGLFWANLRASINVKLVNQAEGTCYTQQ
Chain of TLR1/TLR2 (Mus musculus, UniProt Q9EPQ1+Q9QUN7) (Q9QUN7 25-784): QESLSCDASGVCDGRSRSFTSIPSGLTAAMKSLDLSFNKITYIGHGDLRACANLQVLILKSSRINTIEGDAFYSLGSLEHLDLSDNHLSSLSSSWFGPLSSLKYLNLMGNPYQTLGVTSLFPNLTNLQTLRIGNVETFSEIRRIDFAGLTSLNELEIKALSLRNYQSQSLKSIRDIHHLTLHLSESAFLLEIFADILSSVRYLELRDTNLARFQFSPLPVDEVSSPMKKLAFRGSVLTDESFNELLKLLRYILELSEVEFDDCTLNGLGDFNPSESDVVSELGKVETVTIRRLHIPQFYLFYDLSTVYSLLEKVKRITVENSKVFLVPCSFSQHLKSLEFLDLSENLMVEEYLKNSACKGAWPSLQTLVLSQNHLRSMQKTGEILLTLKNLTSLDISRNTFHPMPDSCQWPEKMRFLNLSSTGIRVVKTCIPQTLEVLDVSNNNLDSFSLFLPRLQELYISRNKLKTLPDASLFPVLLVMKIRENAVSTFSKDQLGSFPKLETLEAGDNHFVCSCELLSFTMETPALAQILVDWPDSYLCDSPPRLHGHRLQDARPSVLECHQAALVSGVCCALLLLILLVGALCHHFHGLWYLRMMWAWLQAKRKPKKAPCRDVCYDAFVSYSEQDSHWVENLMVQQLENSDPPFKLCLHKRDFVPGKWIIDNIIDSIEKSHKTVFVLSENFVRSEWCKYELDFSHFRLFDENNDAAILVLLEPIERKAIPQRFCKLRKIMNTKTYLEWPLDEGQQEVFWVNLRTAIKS
Method: Thioglycolate-elicited macrophages were recovered 4 days after i.p. injection of 2 mL BBL thioglycolate medium, brewer modified (4%; BD Biosciences) by peritoneal lavage with 5 mL phosphate buffered saline (PBS). […] Cells were seeded onto 96-well plates at 1×10^3 cells per well and treated with systematically varied concentrations of the candidate compounds (dissolved in DMSO, and final assay DMSO concentrations (0.5%) were kept constant in all experiments) for 4 h. Ultra-pure LPS (dissolved in H2O, Enzo Life Sciences) was assessed alongside the compounds as a positive control and DMSO treated controls. […] Mouse TNF-α in the supernatants was measured by ELISA kits according to the manufacturer's instructions (eBioscience). EC50's were calculated by Graphpad Prism. All data is mean of duplicates and SD is within ±10% of mean. Mouse cells were from wild type C57BL/6J mice.

Chain of TLR1/TLR2 (Homo sapiens, UniProt O60603+Q15399) (Q15399 25-786): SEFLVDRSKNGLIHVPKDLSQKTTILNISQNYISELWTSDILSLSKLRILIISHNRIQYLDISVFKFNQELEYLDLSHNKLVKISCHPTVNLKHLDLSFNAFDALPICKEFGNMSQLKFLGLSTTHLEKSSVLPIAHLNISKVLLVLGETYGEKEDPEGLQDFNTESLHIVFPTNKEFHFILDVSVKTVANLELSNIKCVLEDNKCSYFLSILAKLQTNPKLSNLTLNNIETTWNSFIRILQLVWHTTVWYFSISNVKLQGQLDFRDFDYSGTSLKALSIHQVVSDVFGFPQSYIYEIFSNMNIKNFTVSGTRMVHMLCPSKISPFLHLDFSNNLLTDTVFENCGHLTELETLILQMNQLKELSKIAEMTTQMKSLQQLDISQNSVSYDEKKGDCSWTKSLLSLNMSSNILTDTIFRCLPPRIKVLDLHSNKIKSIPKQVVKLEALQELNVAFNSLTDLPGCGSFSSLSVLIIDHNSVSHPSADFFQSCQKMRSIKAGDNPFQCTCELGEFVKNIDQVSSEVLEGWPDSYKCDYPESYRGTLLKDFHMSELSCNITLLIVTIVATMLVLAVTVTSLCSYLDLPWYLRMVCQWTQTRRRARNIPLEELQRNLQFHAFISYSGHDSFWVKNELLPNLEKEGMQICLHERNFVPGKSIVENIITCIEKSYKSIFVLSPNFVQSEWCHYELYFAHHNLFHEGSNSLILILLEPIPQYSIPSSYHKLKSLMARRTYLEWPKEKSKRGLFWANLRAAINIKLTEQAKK
Chain of TLR1/TLR2 (Homo sapiens, UniProt O60603+Q15399) (O60603 21-784): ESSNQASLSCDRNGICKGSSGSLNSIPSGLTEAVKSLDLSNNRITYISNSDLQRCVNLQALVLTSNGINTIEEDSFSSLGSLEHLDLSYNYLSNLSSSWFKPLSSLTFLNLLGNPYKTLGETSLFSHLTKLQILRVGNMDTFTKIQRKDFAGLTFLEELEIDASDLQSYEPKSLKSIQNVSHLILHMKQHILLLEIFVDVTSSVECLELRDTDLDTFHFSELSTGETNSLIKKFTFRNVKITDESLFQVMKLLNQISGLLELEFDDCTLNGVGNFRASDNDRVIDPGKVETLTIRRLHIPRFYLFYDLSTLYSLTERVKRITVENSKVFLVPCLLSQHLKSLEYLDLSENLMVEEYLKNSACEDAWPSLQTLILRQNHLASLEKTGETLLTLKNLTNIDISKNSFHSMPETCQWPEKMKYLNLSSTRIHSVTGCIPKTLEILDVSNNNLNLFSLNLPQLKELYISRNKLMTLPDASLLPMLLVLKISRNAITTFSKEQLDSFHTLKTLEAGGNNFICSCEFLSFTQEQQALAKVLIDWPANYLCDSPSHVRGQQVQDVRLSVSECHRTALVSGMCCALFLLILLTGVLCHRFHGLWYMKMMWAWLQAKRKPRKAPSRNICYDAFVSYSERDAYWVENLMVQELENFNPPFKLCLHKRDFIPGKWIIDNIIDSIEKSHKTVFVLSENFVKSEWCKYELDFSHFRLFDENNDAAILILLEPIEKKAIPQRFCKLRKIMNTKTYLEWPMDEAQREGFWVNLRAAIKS

In the case of `O=C(NCCCCCCCCCCCCS)[C@@H]1CN(C(=O)c2ccc(C(=O)N3C[C@@H](C(=O)N[C@H]4C[C@@H]4c4ccccc4)[C@H](C(=O)N[C@H]4C[C@@H]4c4ccccc4)C3)cc2)C[C@H]1C(=O)N[C@H]1C[C@@H]1c1ccccc1` [Compound 21, (3S,4S)-1-(4-((3S,4S)-3,4-Bis(((1S,2R)-2-phenyl-cyclopropyl)carbamoyl)pyrrolidine-1-carbonyl)-benzoyl)-N^3-(12-mercaptododecyl)-N^4-((1S,2R)-2-phenyl-cyclo-propyl)pyrrolidine-3,4-dicarboxamide], the half-maximal effective concentration (EC50) worked out at 0.5 nM on TLR1/TLR2 [1] and 5 nM on TLR1/TLR2 [2].

Take `O=C(NCc1ccccc1)[C@@H]1CN(C(=O)c2ccc(C(=O)N3C[C@@H](C(=O)N[C@H]4C[C@@H]4c4ccccc4)[C@H](C(=O)N[C@H]4C[C@@H]4c4ccccc4)C3)cc2)C[C@H]1C(=O)N[C@H]1C[C@@H]1c1ccccc1` [Compound 22, (3S,4S)—N^3-Benzyl-1-(4-((3S,4S)-3,4-bis(((1S,2R)-2-phenylcyclopropyl)carbamoyl)pyrrolidine-1-carbonyl)-benzoyl)-N^4-((1S,2R)-2-phenylcyclopropyl)pyrrolidine-3,4-dicarboxamide]: the EC50 at TLR1/TLR2 [1] stood at 7 nM; at TLR1/TLR2 [2], 50 nM.

For `O=C(NCCc1ccccc1)[C@@H]1CN(C(=O)c2ccc(C(=O)N3C[C@@H](C(=O)N[C@H]4C[C@@H]4c4ccccc4)[C@H](C(=O)N[C@H]4C[C@@H]4c4ccccc4)C3)cc2)C[C@H]1C(=O)N[C@H]1C[C@@H]1c1ccccc1` [Compound 23, (3S,4S)-1-(4-((3S,4S)-3,4-Bis(((1S,2R)-2-phenyl-cyclopropyl)carbamoyl)pyrrolidine-1-carbonyl)-benzoyl)-N^3-phenethyl-N^4-((1S,2R)-2-phenylcyclo-propyl)pyrrolidine-3,4-dicarboxamide], the values for the EC50 on TLR1/TLR2 [1] and at TLR1/TLR2 [2] were 1.5 nM and 30 nM, respectively.

Turning to `O=C(NCc1ccc(F)cc1)[C@@H]1CN(C(=O)c2ccc(C(=O)N3C[C@@H](C(=O)N[C@H]4C[C@@H]4c4ccccc4)[C@H](C(=O)N[C@H]4C[C@@H]4c4ccccc4)C3)cc2)C[C@H]1C(=O)N[C@H]1C[C@@H]1c1ccccc1` [Compound 24, (3S,4S)-1-(4-((3S,4S)-3,4-Bis(((1S,2R)-2-phenylcyclo-propyl)carbamoyl)pyrrolidine-1-carbonyl)-benzoyl)-N^3-(4-fluorobenzyl)-N^4-((1S,2R)-2-phenylcyclopropyl)-pyrrolidine-3,4-dicarboxamide], the EC50 at TLR1/TLR2 [1] came out at 2 nM; at TLR1/TLR2 [2], 30 nM.

As for `O=C(NCCc1ccc(F)cc1)[C@@H]1CN(C(=O)c2ccc(C(=O)N3C[C@@H](C(=O)N[C@H]4C[C@@H]4c4ccccc4)[C@H](C(=O)N[C@H]4C[C@@H]4c4ccccc4)C3)cc2)C[C@H]1C(=O)N[C@H]1C[C@@H]1c1ccccc1` [Compound 25, (3S,4S)-1-(4-((3S,4S)-3,4-Bis(((1S,2R)-2-phenylcyclo-propyl)carbamoyl)pyrrolidine-1-carbonyl)-benzoyl)-N^3-(4-fluorophenethyl)-N^4-((1S,2R)-2-phenylcyclopropyl)-pyrrolidine-3,4-dicarboxamide], the EC50 at TLR1/TLR2 [1] amounted to 0.5 nM; at TLR1/TLR2 [2] it was 1 nM.

For the molecule `O=C(NCCCCCCCCc1ccc(O)cc1)[C@@H]1CN(C(=O)c2ccc(C(=O)N3C[C@@H](C(=O)N[C@H]4C[C@@H]4c4ccccc4)[C@H](C(=O)N[C@H]4C[C@@H]4c4ccccc4)C3)cc2)C[C@H]1C(=O)N[C@H]1C[C@@H]1c1ccccc1` [Compound 26, (3S,4S)-1-(4-((3S,4S)-3,4-Bis(((1S,2R)-2-phenylcyclo-propyl)carbamoyl)pyrrolidine-1-carbonyl)-benzoyl)-N^3-(8-(4-hydroxyphenyl)octyl)-N^4-((1S,2R)-2-phenylcyclo-propyl)pyrrolidine-3,4-dicarboxamide], the Emax amounted to 90% on TLR1/TLR2 [1] (THP-1, 4 h, read-out: Efficacy (magnitude) of response versus diprovocim-1 (100%), THP-1) and 380% at TLR1/TLR2 [2] (4 h, read-out: Efficacy (magnitude) of response versus diprovocim-1 (100%), mouse macrophages). Further, the EC50 on TLR1/TLR2 [1] was 0.15 nM; at TLR1/TLR2 [2] it was 2.6 nM.

A word on the EC50: it is the concentration giving half of the maximal effect.

The values above are taken from patent US20250367166A1, “NEXT GENERATION DIPROVOCIMS THAT ACTIVATE THE INNATE AND ADAPTIVE IMMUNE RESPONSE” (The Scripps Research Institute, priority 2022, published 2025).
